Experimental data published in patent US20240197733A1, “A GABA RECEPTOR MODULATOR FOR USE IN THE TREATMENT OF PAIN” (SANIONA A/S, priority 2021, published 2024).

System: electrocutaneous stimulation-induced facial pain rodent model
Assay: ES-induced facial pain model, cold thermal allodynia (acetone test), prophylactic and acute treatment
Type: in vivo, Sprague-Dawley rats
Settings: for development of cold allodynia vs vehicle: day 9 at 0 time
Method: Cold Thermal threshold was assessed by measuring each rat's facial withdrawal latency (seconds) in response to a single 10 uL drop of acetone directly on the depilated and stimulated rat cheek. Cutoff was set at 60 seconds. Facial withdrawal response criteria were as following: burrowing head, shaking of head back-and-forth, excessive blinking, turning head away from experimenter. Unless stated otherwise, the same materials, methods, and provisions of Example 1 were applied to Example 2. The required quantity of the compound is weighed and dissolved in 100% DMSO in a volume amounting to 5% of the total volume while placed on a stirrer. The weight of the compounds refers to the free base weights. Once the solution becomes clear/transparent, the remaining volume of the vehicle is added (30% HPBCD prepared in MQ water) to final concentrations of 0.03, 0.1, and 0.3 mg/ml for Compound 1. The solutions are kept on a stirrer before- and during administration of the compounds to the animals. The experimenter assessing the behavioral responses to drug administration is blinded to the drug treatment to the animals. Each treatment group is coded according the scheme below: • A. Vehicle (5% DMSO+30% HPBCD): 10 ml/kg • B. Compound 1: 0.3 mg/kg • C. Compound 1: 1 mg/kg • D. Compound 1: 3 mg/kg • F. Compound 1: 3 mg/kg—acute Second baseline measurement was carried out similarly to day 1, For each animal, the average of the two baseline nociceptive measurements was calculated within each pain modality (mechanical, heat- and cold pain), and used as baseline (“Baseline” point on figures). Then all rats in the above respective group (A-D) are given treated as mentioned. Group F received vehicle treatment. Treatment is continued once daily to each group same as Day 2 All rats were treated with respective treatment as per day 3-7. After 1 hr of treatment, each rat was subjected to 1 hr of electrocutaneous stimulation at depilated cheek (0.4 mA intensity, 10 ms duration, 1 s inter-pulse interval). Similar to day 1- and 2, all rats were acclimatized to test equipment followed by measurements of ES-induced facial mechanical- heat- and cold allodynia (“0” time point on figures). After measurement of hypersensitivity threshold, rats from group A-D received the vehicle and three doses of Compound 1 as mentioned above while group F received single acute dose of 3 mg/kg of Compound 1. Treatment effects on pain thresholds were evaluated 2- and 4 hours after administration by assessing mechanical- (Von Frey) and thermal (heat and cold) withdrawal threshold.

## COc1ncc(-c2cccc(-n3cnc4cc(C(C)(C)O)cnc43)c2)c(OC)n1 [Compound 1, 2-(3-(3-(2,4-dimethoxypyrimidin-5-yl)phenyl)-3H-imidazo[4,5-b]pyridin-6-yl)propan-2-ol]
Acute 3 mg/kg po on day 9, p<0.001 and p<0.0001 post 2 and 4 hrs
  effect on established cold allodynia vs vehicle: reversed the mechanical allodynia
Prophylactic 0.3 mg/kg po plus additional dose on day 9, p>0.05 post 2 hrs, p<0.01 post 4 hrs
  effect on established cold allodynia vs vehicle: reversed the cold allodynia dose dependently
Prophylactic 1 mg/kg po once daily for 7 days, p<0.05 vs vehicle
  development of cold allodynia vs vehicle: significantly reduced the development of cold allodynia
Prophylactic 1 mg/kg po plus additional dose on day 9, p<0.01 post 2 hrs, p<0.0001 post 4 hrs
  effect on established cold allodynia vs vehicle: reversed the cold allodynia dose dependently
Prophylactic 3 mg/kg po once daily for 7 days, p<0.0001 vs vehicle
  development of cold allodynia vs vehicle: significantly reduced the development of cold allodynia
Prophylactic 3 mg/kg po plus additional dose on day 9, p<0.0001 post 2 hrs and post 4 hrs
  effect on established cold allodynia vs vehicle: reversed the cold allodynia dose dependently
